Test results reported in patent publication US7671061B2, “Methods and compositions for treating pain” (Hydra Biosciences, Inc., priority 2005, dated 2010).

What was measured:
hTRPA1 = target: T1, hTRPA1 (Homo sapiens, UniProt O75762, K186N); experiment: High throughput Ca2+ fluorescence (Fluo4) assay, AITC stimulation; format: cell-based; conditions: Table 2; read-out: hTRPA1 Fluor IC50
T1 construct: expressed in transfected cells; host or cells: HEK293/TREx (Invitrogen), induced with tetracycline
T1 sequence (O75762 whole entry K186N): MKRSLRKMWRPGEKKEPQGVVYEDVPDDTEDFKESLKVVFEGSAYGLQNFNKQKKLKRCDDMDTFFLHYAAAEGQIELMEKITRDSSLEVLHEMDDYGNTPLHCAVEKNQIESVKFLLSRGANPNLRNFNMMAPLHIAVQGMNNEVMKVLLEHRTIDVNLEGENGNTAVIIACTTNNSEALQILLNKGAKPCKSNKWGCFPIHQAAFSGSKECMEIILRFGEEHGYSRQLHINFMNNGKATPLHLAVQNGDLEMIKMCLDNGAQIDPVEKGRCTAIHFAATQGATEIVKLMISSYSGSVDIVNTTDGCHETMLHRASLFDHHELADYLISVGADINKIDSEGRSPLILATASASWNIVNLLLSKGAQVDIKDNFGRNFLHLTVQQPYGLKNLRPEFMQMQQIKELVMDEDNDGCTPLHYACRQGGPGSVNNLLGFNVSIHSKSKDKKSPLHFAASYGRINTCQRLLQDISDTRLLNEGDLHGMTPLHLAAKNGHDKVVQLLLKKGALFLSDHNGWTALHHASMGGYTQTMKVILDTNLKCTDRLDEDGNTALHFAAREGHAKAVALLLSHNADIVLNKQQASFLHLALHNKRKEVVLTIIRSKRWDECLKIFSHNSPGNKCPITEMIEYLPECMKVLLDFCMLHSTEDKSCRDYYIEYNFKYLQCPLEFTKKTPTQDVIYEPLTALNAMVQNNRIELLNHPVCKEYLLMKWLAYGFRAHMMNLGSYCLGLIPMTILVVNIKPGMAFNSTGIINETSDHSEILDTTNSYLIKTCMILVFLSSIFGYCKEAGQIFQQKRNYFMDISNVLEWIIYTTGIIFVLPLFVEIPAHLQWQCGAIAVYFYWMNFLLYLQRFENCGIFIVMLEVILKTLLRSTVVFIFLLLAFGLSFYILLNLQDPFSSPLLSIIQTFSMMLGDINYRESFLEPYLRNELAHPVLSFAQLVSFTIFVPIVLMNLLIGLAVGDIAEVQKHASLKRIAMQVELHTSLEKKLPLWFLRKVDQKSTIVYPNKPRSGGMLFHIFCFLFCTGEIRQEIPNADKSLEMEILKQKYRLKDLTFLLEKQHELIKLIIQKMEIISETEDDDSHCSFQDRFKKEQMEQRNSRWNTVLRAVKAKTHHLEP
Procedure, shortened: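 Read-out is Fluo4 fluorescence, proportional to [Ca2+]i, over ~3 min after AITC challenge, following 2 min compound pre-exposure in HEK293/TREx cells induced with 1 μg/ml tetracycline. Dye: 1 μM, 60 min, room temperature.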

hERG = hERG (Homo sapiens, UniProt Q12809); experiment: hERG patch clamp (Qpatch) selectivity; conditions: hERG IC50 (nM), Table 2
Sequence of hERG (Q12809 whole entry): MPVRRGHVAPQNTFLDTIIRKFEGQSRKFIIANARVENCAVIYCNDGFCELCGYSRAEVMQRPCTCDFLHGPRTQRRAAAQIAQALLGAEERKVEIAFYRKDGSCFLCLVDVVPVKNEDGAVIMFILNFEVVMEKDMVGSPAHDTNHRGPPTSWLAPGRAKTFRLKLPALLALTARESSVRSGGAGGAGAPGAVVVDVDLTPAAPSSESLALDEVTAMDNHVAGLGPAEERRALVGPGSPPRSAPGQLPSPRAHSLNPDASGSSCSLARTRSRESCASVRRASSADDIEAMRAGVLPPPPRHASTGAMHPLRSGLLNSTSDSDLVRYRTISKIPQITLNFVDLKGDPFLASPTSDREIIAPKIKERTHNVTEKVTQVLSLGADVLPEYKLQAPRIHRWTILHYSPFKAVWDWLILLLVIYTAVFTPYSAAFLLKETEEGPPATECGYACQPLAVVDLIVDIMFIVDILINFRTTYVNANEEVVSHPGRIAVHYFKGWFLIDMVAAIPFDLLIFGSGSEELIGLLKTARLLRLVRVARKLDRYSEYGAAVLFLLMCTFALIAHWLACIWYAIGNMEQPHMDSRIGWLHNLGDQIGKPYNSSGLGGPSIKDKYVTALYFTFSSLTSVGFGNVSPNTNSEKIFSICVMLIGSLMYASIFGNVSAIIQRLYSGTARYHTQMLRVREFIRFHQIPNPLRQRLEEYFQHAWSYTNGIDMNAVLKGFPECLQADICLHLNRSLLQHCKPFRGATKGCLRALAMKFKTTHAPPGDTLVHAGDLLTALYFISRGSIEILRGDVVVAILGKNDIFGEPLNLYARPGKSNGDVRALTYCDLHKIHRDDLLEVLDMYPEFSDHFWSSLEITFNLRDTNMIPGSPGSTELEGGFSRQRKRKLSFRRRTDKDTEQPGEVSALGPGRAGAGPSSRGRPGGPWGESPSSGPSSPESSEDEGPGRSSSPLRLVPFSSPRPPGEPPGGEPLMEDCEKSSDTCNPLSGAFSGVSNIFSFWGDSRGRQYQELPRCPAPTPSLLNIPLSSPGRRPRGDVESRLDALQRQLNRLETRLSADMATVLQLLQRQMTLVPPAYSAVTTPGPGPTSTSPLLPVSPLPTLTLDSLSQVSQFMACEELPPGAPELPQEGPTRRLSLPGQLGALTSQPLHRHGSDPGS

[1] = tested on: carrageenan-induced inflammation; experiment: Carrageenan model of acute inflammatory pain (paw volume); format: in vivo, rat; conditions: IP, carrageenan injected paw
Method: In this study, the drug administered was either a TRPA1 inhibitor or the non-steroidal anti-inflammatory diclofenac. Following administration of both carrageenan and drug or vehicle control, paw volume was measured and used to assess decreased inflammation.

hTRPV3 = target: T2, hTRPV3 (Homo sapiens, UniProt Q8NET8); experiment: hTRPV3 patch clamp selectivity; format: cell-based; conditions: Table 2
T2 sequence (Q8NET8 1-790): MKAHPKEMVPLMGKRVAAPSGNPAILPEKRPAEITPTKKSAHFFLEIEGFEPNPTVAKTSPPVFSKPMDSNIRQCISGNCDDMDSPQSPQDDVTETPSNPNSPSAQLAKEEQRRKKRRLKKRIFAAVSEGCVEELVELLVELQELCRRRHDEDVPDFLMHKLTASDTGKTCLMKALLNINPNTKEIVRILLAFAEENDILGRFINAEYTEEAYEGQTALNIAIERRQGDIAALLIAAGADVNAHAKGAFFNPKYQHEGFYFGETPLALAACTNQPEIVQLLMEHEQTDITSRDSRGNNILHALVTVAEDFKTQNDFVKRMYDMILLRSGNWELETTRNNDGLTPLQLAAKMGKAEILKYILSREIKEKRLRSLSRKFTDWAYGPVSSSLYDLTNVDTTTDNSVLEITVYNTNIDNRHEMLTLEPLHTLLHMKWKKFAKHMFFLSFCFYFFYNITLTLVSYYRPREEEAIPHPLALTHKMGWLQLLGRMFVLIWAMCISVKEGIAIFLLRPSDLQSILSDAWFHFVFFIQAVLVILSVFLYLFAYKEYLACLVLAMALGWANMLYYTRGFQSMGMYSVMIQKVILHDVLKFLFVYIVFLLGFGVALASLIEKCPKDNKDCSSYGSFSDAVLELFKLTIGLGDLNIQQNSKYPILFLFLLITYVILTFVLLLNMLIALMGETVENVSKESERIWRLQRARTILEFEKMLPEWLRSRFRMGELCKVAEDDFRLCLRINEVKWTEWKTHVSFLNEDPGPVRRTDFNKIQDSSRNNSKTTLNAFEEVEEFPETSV

formalin model = experiment: Formalin model of pain; format: in vivo, rat; conditions: both Early Phase and Late Phase, drug 15 min before formalin
Method: As outlined above, the formalin model involves injection of a formalin solution intradermally or […]. Injection of formalin solution invokes a biphasic response, and thus provides a model for both nociceptive and inflammatory pain. The formalin model can be used to evaluate the effectiveness of an exemplary TRPA1 inhibitor in the treatment of pain. […] Briefly, the following protocol was followed. Male Holtzmann rats received intraplantar injections of 50 μL of 2% formalin. Paw flinching was detected by an automated sensor detecting movement of a small metal band placed on the injected hind paw. Drug or vehicle was administered approximately 15 minutes prior to the injection of formalin. The animal's response to injection of the irritant was measured by counting flinches per minutes during the Early Phase (the first 5 minutes following injection of formalin), during the Late Phase (approximately 30 minutes after injection of formalin), and during the intervening pain free phase. In FIG. 2, the right most bar for each data set (Early Phase and Late Phase) represents administration of vehicle alone and the left most bar represents administration of gabapentin. […]

## CC(C)c1ccc(NC(=O)Cn2cnc3c2c(=O)n(C)c(=O)n3C)cc1 [Compound 200, 2-(1,3-dimethyl-2,6-dioxo-1,2,3,6-tetrahydropurin-7-yl)-N-(4-isopropylphenyl)acetamide]
hTRPA1
  IC50: ≤ 5 µM
hERG
  IC50: ≥ 20000 nM
[1]
  paw volume (inflammation): decreased
hTRPV3
  selective for TRPA1 over TRPV3: ≥ 5 fold
hTRPV3; read-out: hTRPV3 P1 inward IC50
  IC50: > 10 µM
Formalin model
  flinches per minute: substantially reduced
